Legend:
Assay in all cases: relative viability (nuclei count vs DMSO), 5 days (fraction); higher = more cells survive
[1] = compound: COc1cccc2cc(-c3nc([C@H]4CC[C@H](C(=O)O)CC4)n4ncnc(N)c34)[nH]c12 [OSI-027] + C[C@@H](Oc1cc(-c2cnn(C3CCNCC3)c2)cnc1N)c1c(Cl)ccc(F)c1Cl [Crizotinib] (partner 1 µM)
How it was run: (§1)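 Relative viability is defined as nuclei in treated wells over nuclei in vehicle wells. Duplicate plates were run and medians reported. Lung cancer cell lines in 1536-well plates were dosed by pin tool one day after seeding, with one drug or with a fixed anchor-drug dose plus five library-drug doses (not always all listed) in √10 steps, and nuclei were counted after 5 days.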

[2] = compound: Cc1nc(NC(=O)N2CCC[C@H]2C(N)=O)sc1-c1ccnc(C(C)(C)C(F)(F)F)c1 [Alpelisib] + CC(C)C[C@H](NC(=O)[C@H](Cc1ccccc1)NC(=O)c1cnccn1)B(O)O [Bortezomib] (partner 0.002 µM)
How it was run: as §1

[3] = compound: CCCS(=O)(=O)Nc1ccc(F)c(C(=O)c2c[nH]c3ncc(-c4ccc(Cl)cc4)cc23)c1F [Vemurafenib] + C[C@@H](Oc1cc(-c2cnn(C3CCNCC3)c2)cnc1N)c1c(Cl)ccc(F)c1Cl [Crizotinib] (partner 1 µM)
How it was run: as §1

[4] = compound: Cc1nc(NC(=O)N2CCC[C@H]2C(N)=O)sc1-c1ccnc(C(C)(C)C(F)(F)F)c1 [Alpelisib] + Cc1cc(Nc2cc(N3CCN(C)CC3)nc(Sc3ccc(NC(=O)C4CC4)cc3)n2)n[nH]1 [Tozasertib] (partner 0.1 µM)
How it was run: as §1

| Cell Line | relative viability ([1]; first compound 0.01 µM) | relative viability ([1]; first compound 0.03162 µM) | relative viability ([1]; first compound 0.1 µM) | relative viability ([1]; first compound 0.3162 µM) | relative viability ([1]; first compound 1 µM) | relative viability ([2]; first compound 0.04 µM) | relative viability ([2]; first compound 0.1265 µM) | relative viability ([2]; first compound 0.4 µM) | relative viability ([2]; first compound 1.265 µM) | relative viability ([2]; first compound 4 µM) | relative viability ([3]; first compound 0.03162 µM) | relative viability ([3]; first compound 0.1 µM) | relative viability ([3]; first compound 1 µM) | relative viability ([4]; first compound 0.04 µM) | relative viability ([4]; first compound 0.1265 µM) | relative viability ([4]; first compound 0.4 µM) | relative viability ([4]; first compound 1.265 µM) | relative viability ([4]; first compound 4 µM) | relative viability ([3]; first compound 0.3162 µM) |
| --- | --- | --- | --- | --- | --- | --- | --- | --- | --- | --- | --- | --- | --- | --- | --- | --- | --- | --- | --- |
| NCI-H838 | 0.803 | 0.696 | 0.599 | 0.447 | 0.367 | 0.692 | 0.482 | 0.668 | 0.782 | 0.487 | 0.761 | 0.783 | 0.928 | 0.279 | 0.25 | 0.277 | 0.215 | 0.247 |  |
| NCI-H1650 | 1.13 | 0.999 | 0.886 | 1.2 | 0.531 | 0.201 | 0.22 | 0.185 | 0.176 | 0.169 | 0.922 |  | 1.01 | 0.464 | 0.287 | 0.375 | 0.332 | 0.36 | 1.08 |
| NCI-H1975 | 1.1 | 0.88 | 0.99 | 0.97 | 0.828 | 0.419 | 0.318 | 0.355 | 0.238 | 0.189 | 0.955 | 0.926 | 1.02 | 0.726 | 0.655 | 0.755 | 0.542 | 0.29 | 0.837 |
| NCI-H1437 | 0.987 | 0.966 | 0.995 | 0.944 | 0.441 | 0.504 | 0.515 | 0.497 | 0.49 | 0.508 | 0.801 | 0.937 | 0.906 | 0.41 | 0.394 | 0.417 | 0.336 | 0.306 | 0.895 |
| NCI-H1666 | 1 | 1.09 | 0.754 | 0.76 | 0.524 | 0.837 | 0.695 | 0.882 | 0.591 | 0.423 | 1.02 |  | 1.05 | 0.668 | 0.63 | 0.636 | 0.519 | 0.528 | 1.24 |
| NCI-H647 | 1.12 | 1.2 | 1.07 | 0.701 | 0.456 | 0.75 | 1.1 | 1.34 | 0.944 | 0.922 | 1.03 | 0.963 | 0.713 | 0.416 | 0.322 | 0.419 | 0.102 | 0.26 | 0.884 |
| NCI-H23 | 0.482 | 0.416 | 0.535 | 0.525 | 0.293 | 0.941 | 0.941 | 0.773 | 0.559 | 0.766 | 0.468 | 0.541 | 0.465 | 0.39 | 0.428 | 0.459 | 0.302 | 0.255 | 0.654 |
| NCI-H1915 | 0.928 | 0.829 | 0.931 | 0.896 | 0.584 | 0.991 | 1.04 | 0.947 | 0.887 | 0.805 | 0.874 | 0.908 | 0.769 | 0.421 | 0.381 | 0.491 | 0.387 | 0.392 | 0.853 |

— the supplement of paper PMC10307832
